From the NIST ThermoML archive (doi:10.1016/j.jct.2004.07.031)
“And” between values parts separate entries of the source, which are not always exact repeats. Equal values may be shown once. ± gives the expanded uncertainty stated by the source.

Experiment: molar heat capacity at constant pressure
Details: 101.33 kPa, Crystal, PPMS instrument (Quantum Design)

O=P([O-])([O-])[O-].[La+3] [lanthanum orthophosphate]
Details	molar heat capacity at constant pressure
2.046 K	0.00182 ± 9e-05 J/K/mol
2.066 K	0.00139 ± 9e-05 J/K/mol
2.067 K	0.0014 ± 9e-05 J/K/mol
2.068 K	0.00141 ± 9e-05 J/K/mol
2.083 K	0.00123 ± 9e-05 J/K/mol
2.246 K	0.0017 ± 0.00011 J/K/mol
2.247 K	0.0017 ± 0.00011 J/K/mol and 0.00172 ± 0.00011 J/K/mol
2.415 K	0.00201 ± 0.00013 J/K/mol
2.429 K	0.00212 ± 0.00011 J/K/mol
2.43 K	0.00213 ± 0.00011 J/K/mol
2.616 K	0.00265 ± 0.00013 J/K/mol
2.617 K	0.00266 ± 0.00013 J/K/mol
2.618 K	0.00266 ± 0.00013 J/K/mol
2.763 K	0.0031 ± 0.00014 J/K/mol
2.802 K	0.0034 ± 0.00015 J/K/mol
2.803 K	0.00342 ± 0.00015 J/K/mol
2.805 K	0.00339 ± 0.00014 J/K/mol
2.989 K	0.00467 ± 0.00018 J/K/mol
2.992 K	0.00476 ± 0.00018 J/K/mol
2.994 K	0.00473 ± 0.00018 J/K/mol
3 K	0.0053 ± 0.00019 J/K/mol
3.115 K	0.00524 ± 0.00019 J/K/mol
3.19 K	0.00601 ± 0.00021 J/K/mol
3.191 K	0.00593 ± 0.00021 J/K/mol and 0.00603 ± 0.00021 J/K/mol
3.383 K	0.00728 ± 0.00025 J/K/mol
3.385 K	0.00731 ± 0.00026 J/K/mol
3.386 K	0.0073 ± 0.00026 J/K/mol
3.473 K	0.00765 ± 0.00026 J/K/mol
3.505 K	0.00809 ± 0.00028 J/K/mol
3.578 K	0.00852 ± 0.00029 J/K/mol
3.58 K	0.00853 ± 0.00029 J/K/mol and 0.00852 ± 0.00029 J/K/mol
3.772 K	0.00994 ± 0.00034 J/K/mol
3.775 K	0.00998 ± 0.00034 J/K/mol
3.778 K	0.00998 ± 0.00034 J/K/mol
3.839 K	0.01034 ± 0.00035 J/K/mol
3.969 K	0.01147 ± 0.00038 J/K/mol
3.973 K	0.01149 ± 0.00039 J/K/mol
3.976 K	0.01146 ± 0.00038 J/K/mol
4.008 K	0.01178 ± 0.00039 J/K/mol
4.168 K	0.0131 ± 0.00043 J/K/mol
4.172 K	0.01315 ± 0.00044 J/K/mol
4.174 K	0.01314 ± 0.00043 J/K/mol
4.207 K	0.01339 ± 0.00044 J/K/mol
4.368 K	0.01481 ± 0.00049 J/K/mol
4.371 K	0.01487 ± 0.00049 J/K/mol
4.372 K	0.01494 ± 0.00049 J/K/mol
4.518 K	0.01632 ± 0.00053 J/K/mol
4.565 K	0.01686 ± 0.00055 J/K/mol
4.568 K	0.01687 ± 0.00055 J/K/mol
4.569 K	0.0169 ± 0.00055 J/K/mol
4.576 K	0.01697 ± 0.00055 J/K/mol
4.763 K	0.01882 ± 0.00061 J/K/mol
4.765 K	0.01903 ± 0.00062 J/K/mol
4.768 K	0.01911 ± 0.00062 J/K/mol
4.946 K	0.02113 ± 0.00068 J/K/mol
4.961 K	0.02146 ± 0.00069 J/K/mol
4.965 K	0.02154 ± 0.00069 J/K/mol
4.967 K	0.02153 ± 0.00069 J/K/mol
5.031 K	0.02216 ± 0.00071 J/K/mol
5.166 K	0.02384 ± 0.00076 J/K/mol
5.173 K	0.02394 ± 0.00077 J/K/mol
5.174 K	0.02375 ± 0.00076 J/K/mol
5.323 K	0.02601 ± 0.00083 J/K/mol
5.367 K	0.0265 ± 0.00085 J/K/mol
5.369 K	0.02666 ± 0.00085 J/K/mol
5.37 K	0.02686 ± 0.00086 J/K/mol
5.546 K	0.02914 ± 0.00093 J/K/mol
5.565 K	0.02951 ± 0.00094 J/K/mol
5.574 K	0.02974 ± 0.00094 J/K/mol and 0.02916 ± 0.00093 J/K/mol
5.695 K	0.03139 ± 0.00099 J/K/mol
5.77 K	0.03276 ± 0.001 J/K/mol
5.771 K	0.03277 ± 0.001 J/K/mol
5.774 K	0.03288 ± 0.001 J/K/mol
5.965 K	0.03647 ± 0.0011 J/K/mol
5.967 K	0.03583 ± 0.0011 J/K/mol
5.974 K	0.03623 ± 0.0011 J/K/mol
6.057 K	0.03765 ± 0.0012 J/K/mol
6.065 K	0.03776 ± 0.0012 J/K/mol
6.165 K	0.03972 ± 0.0013 J/K/mol
6.17 K	0.03972 ± 0.0013 J/K/mol
6.171 K	0.03961 ± 0.0012 J/K/mol
6.367 K	0.04348 ± 0.0014 J/K/mol
6.37 K	0.04345 ± 0.0014 J/K/mol
6.373 K	0.04366 ± 0.0014 J/K/mol
6.438 K	0.04486 ± 0.0014 J/K/mol
6.567 K	0.04741 ± 0.0015 J/K/mol
6.572 K	0.04748 ± 0.0015 J/K/mol
6.574 K	0.04752 ± 0.0015 J/K/mol and 0.04753 ± 0.0015 J/K/mol
6.768 K	0.05148 ± 0.0016 J/K/mol
6.773 K	0.05174 ± 0.0016 J/K/mol
6.774 K	0.05167 ± 0.0016 J/K/mol
6.812 K	0.05274 ± 0.0016 J/K/mol
6.968 K	0.0563 ± 0.0018 J/K/mol
6.973 K	0.0564 ± 0.0018 J/K/mol
6.976 K	0.05661 ± 0.0018 J/K/mol
7.087 K	0.05926 ± 0.0019 J/K/mol
7.169 K	0.06123 ± 0.0019 J/K/mol
7.175 K	0.06142 ± 0.0019 J/K/mol
7.176 K	0.06139 ± 0.0019 J/K/mol
7.188 K	0.06178 ± 0.0019 J/K/mol
7.371 K	0.06581 ± 0.0021 J/K/mol
7.377 K	0.06689 ± 0.0021 J/K/mol
7.381 K	0.06684 ± 0.0021 J/K/mol
7.56 K	0.07178 ± 0.0022 J/K/mol
7.57 K	0.07164 ± 0.0022 J/K/mol
7.575 K	0.072 ± 0.0022 J/K/mol
7.579 K	0.07223 ± 0.0022 J/K/mol
7.604 K	0.07273 ± 0.0023 J/K/mol
7.774 K	0.07756 ± 0.0024 J/K/mol
7.778 K	0.07802 ± 0.0024 J/K/mol
7.779 K	0.07794 ± 0.0024 J/K/mol
7.937 K	0.08278 ± 0.0026 J/K/mol
7.975 K	0.08393 ± 0.0026 J/K/mol
7.98 K	0.08397 ± 0.0026 J/K/mol
7.983 K	0.08418 ± 0.0026 J/K/mol
8.119 K	0.08872 ± 0.0027 J/K/mol
8.176 K	0.09007 ± 0.0028 J/K/mol
8.182 K	0.09043 ± 0.0028 J/K/mol
8.184 K	0.09022 ± 0.0028 J/K/mol
8.313 K	0.09473 ± 0.0029 J/K/mol
8.378 K	0.09678 ± 0.003 J/K/mol
8.383 K	0.09686 ± 0.003 J/K/mol
8.385 K	0.09715 ± 0.003 J/K/mol
8.584 K	0.1041 ± 0.0032 J/K/mol
8.589 K	0.1043 ± 0.0032 J/K/mol
8.592 K	0.1046 ± 0.0032 J/K/mol
8.642 K	0.1065 ± 0.0033 J/K/mol
8.696 K	0.1085 ± 0.0033 J/K/mol
8.785 K	0.1119 ± 0.0034 J/K/mol
8.792 K	0.1125 ± 0.0035 J/K/mol
8.794 K	0.1122 ± 0.0035 J/K/mol
8.987 K	0.1198 ± 0.0037 J/K/mol
8.993 K	0.1201 ± 0.0037 J/K/mol
8.996 K	0.1202 ± 0.0037 J/K/mol
9.07 K	0.1232 ± 0.0038 J/K/mol
9.158 K	0.127 ± 0.0039 J/K/mol
9.188 K	0.1284 ± 0.0039 J/K/mol
9.196 K	0.131 ± 0.004 J/K/mol and 0.1286 ± 0.004 J/K/mol
9.198 K	0.1286 ± 0.004 J/K/mol
9.393 K	0.1371 ± 0.0042 J/K/mol
9.398 K	0.1378 ± 0.0042 J/K/mol
9.4 K	0.1349 ± 0.0041 J/K/mol
9.447 K	0.1398 ± 0.0043 J/K/mol
9.586 K	0.1462 ± 0.0045 J/K/mol
9.598 K	0.1469 ± 0.0045 J/K/mol
9.602 K	0.1471 ± 0.0045 J/K/mol
9.675 K	0.1505 ± 0.0046 J/K/mol
9.792 K	0.1565 ± 0.0048 J/K/mol
9.8 K	0.1568 ± 0.0048 J/K/mol
9.805 K	0.157 ± 0.0048 J/K/mol
9.822 K	0.1578 ± 0.0049 J/K/mol
